# According to patent publication US9725415B2, “Process for the preparation of 5-fluoro-1H-pyrazoles” (BAYER CROPSCIENCE AKTIENGESELLSCHAFT, priority 2013, dated 2017):
# Test: log P determination by HPLC on a phase inversion column (C18), EEC Directive 79/831 Annex V.A8
# Assay type: physicochemical
# Details: HPLC-MS method a): C18 column, gradient 10% to 95% acetonitrile (0.1% formic acid) / water (0.09% formic acid), oven 55° C.
row,SMILES,chromatographic logP
1,"Cn1nc(C(F)(F)C(F)(F)F)c(C(F)(F)F)c1C(=O)Nc1ccc(Cl)c(C(=O)NCc2ccccc2)c1 [Compound (IIa), N-[4-chloro-3-(benzylcarbamoyl)phenyl]-1-methyl-3-(pentafluoroethyl)-4-(trifluoromethyl)-1H-pyrazole-5-carboxamide]",3.9
2,"Cn1nc(C(F)(F)C(F)(F)F)c(C(F)(F)F)c1-n1cc(-c2ccc(Cl)c(C(=O)NC3(C#N)CC3)c2)cn1 [Compound (IIIa), 2-Chloro-N-1-cyano-cyclopropyl-5-[2′-methyl-5′-(pentafluoroethyl)-4′-(trifluoromethyl)-2′H-1,3′-bipyrazol-4-yl]benzamide]",3.72
3,"Cn1nc(C(F)(F)C(F)(F)F)c(C(F)(F)F)c1-n1cc(Br)cn1 [Intermediate (12), 4-bromo-2′-methyl-5′-(pentafluoroethyl)-4′-(trifluoromethyl)-2′H-1,3′-bipyrazole]",4.14
